Assay results: paper PMC10376691, “Inhibition of Acetylcholinesterase and Amyloid-β Aggregation by Piceatannol and Analogs: Assessing In Vitro and In Vivo Impact on a Murine Model of Scopolamine-Induced Memory Impairment” (Antioxidants, 2023)
“Also recorded” adds a separate entry of the source. Like-named read-outs stand apart in the source and are kept apart here.

Columns and labels:
SH-SY5Y cells [1] = assay: Cytotoxicity on SH-SY5Y cells (MTT); assay type: cell-based; conditions: 1, 2, 5 and 10 μM, MTT (Figure S1)
Experimental: The human SH-SY5Y neuroblastoma cell lines (CRL-2266, Lot No. 58979771) were purchased from American Type Culture Collection (Manassas, VA, USA) and used as models to investigate PIC and its analogs for neuroprotective activities against Aβ-induced cell deaths and the stimulation of neurite outgrowths. The SH-SY5Y cells were grown in DMEM/F-12 medium supplemented with 10% FBS at 37 °C under a humidified atmosphere and 5% CO2 [41]. […]. The SH-SY5Y cells (10,000 cells/well) were seeded and cultured in a DMEM/F-12 medium containing 10% FBS for 24 h at 37 °C under a humidified atmosphere and 5% CO2. […] The medium was then removed, and 40 μg/mL Aβ peptide (25–35) (dissolved in PBS) or an equal aliquot of PBS was added to the medium for another 24 h culture. The MTT was used to evaluate cell viability, and the absorbance at 570 nm was determined. The DMSO used instead of the sample solution was blank (recognized as 100%), and each treatment was expressed as relative cell viability (%). […] To measure cell viability and quantify the neurite outgrowths of the treated SH-SY5Y in a 96-well plate, the neurite outgrowth staining kit (a two-color fluorescence assay kit) was used, following a previous report or the protocol in the manufacturer’s manual (publication number: MAN0007224), which included a cell membrane-stained fluorescent dye (orange-red fluorescence), a cell viability indicator (green fluorescence), and a reagent for background masking. The fluorescence ratios of Ex555nm/Em565nm and Ex495nm/Em515nm were determined for the neurite outgrowths and the cell viabilities, respectively. […]
The following supporting information can be downloaded at: https://www.mdpi.com/article/10.3390/antiox12071362/s1. […] The MTT was used to evaluate cell viability, and the absorbance at 570 nm was determined. The DMSO used instead of the sample solution was blank (recognized as 100%), and each treatment was expressed as relative cell viability (%). […]

[2] = DPPH radical scavenging activity; conditions: 120 μM DPPH in methanol, 37 °C, 20 min
Experimental: DPPH radical scavenging activity was assayed following a previous report, with some modifications. […] DMSO was used instead of a sample solution in the blank group. […] The scavenging activity of the DPPH radical (%) was calculated with the following equation: (△A515blank − △A515sample) ÷ △A515blank × 100%. The IC50 of the DPPH radical scavenging activity of PIC and its analogs or that of Trolox was calculated from each linear equation by three test concentrations and their radical scavenging activities.

Aβ peptide (1–42) = molecular target: T1, Aβ peptide (1–42) (Homo sapiens, UniProt P05067); assay: biochemical
T1 construct: The Aβ peptide (1–42) was synthesized and purchased from Kelowna International Scientific Inc; purchased Kelowna International Scientific Inc. (New Taipei, Taiwan); host or cells: chemical synthesis
T1 sequence (P05067 672-713): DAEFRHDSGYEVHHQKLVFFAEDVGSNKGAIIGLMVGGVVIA
Experimental: To prepare the 10 μM Aβ peptide working solution, commercial Aβ peptide was first weighted and dissolved in HFIP to 1 mM. Next, the solvent was evaporated in a hood and then re-dissolved using 100 μL of 60 mM NaOH. It was then diluted to 10 μM working solutions with 50 mM phosphate buffer (pH 7.4, containing 150 mM sodium chloride and 1 mM EDTA), following previous reports. […] DMSO instead of the sample solution was used as the control. The 50 mM phosphate buffer was used instead of the Aβ working solution as the sample blank. […] The IC50 of the inhibition against the Aβ aggregation of PIC and its analogs was calculated from each linear equation using three test concentrations and their inhibition capacities.

SH-SY5Y cells [3] = assay: Neurite outgrowth and cell viability, two-color fluorescence assay kit; assay type: cell-based; conditions: 10 μM; for stimulation of neurite outgrowths: 3-day or 6-day treatment, orange-red fluorescence, vs control
Experimental: (§1) The SH-SY5Y cells were grown in DMEM/F-12 medium supplemented with 10% FBS at 37 °C under a humidified atmosphere and 5% CO2 [41]. […] The MTT was used to evaluate cell viability, and the absorbance at 570 nm was determined. The DMSO used instead of the sample solution was blank (recognized as 100%), and each treatment was expressed as relative cell viability (%). To study the stimulation of neurite outgrowth, the SH-SY5Y cells (5000 cells/well) were seeded on a 96-well plate pre-coated with poly-L-lysine and then cultured in the DMEM/F-12 medium containing 10% FBS overnight at 37 °C under a humidified atmosphere and 5% CO2. After being removed from the culture medium, each PIC, GNT, RHA, and isoRHA (at a final concentration of 10 μM in the 0.1%DMSO) or 0.1% DMSO (the control) was added to the DMEM/F-12 medium containing 10% FBS and refreshed every three days. On day 3 and day 6, each of the culture plates was photographed using an inverted microscope (ECLIPSE TS100, Nikon Instruments Inc., Tokyo, Japan). The culture medium was removed and washed with PBS, and the cultured cells in each well were fixed with 4% paraformaldehyde. To measure cell viability and quantify the neurite outgrowths of the treated SH-SY5Y in a 96-well plate, the neurite outgrowth staining kit (a two-color fluorescence assay kit) was used, following a previous report or the protocol in the manufacturer’s manual (publication number: MAN0007224), which included a cell membrane-stained fluorescent dye (orange-red fluorescence), a cell viability indicator (green fluorescence), and a reagent for background masking. […] The value for the control was recognized as 100%, and each treatment was expressed relative to the control.

[4] = as above; assay type: cell-based; conditions: human, 3-day or 6-day treatment, green fluorescence, read-out: cell viability relative to the control
Experimental: as §1

SH-SY5Y cells [5] = assay: Neuroprotection against Aβ peptide (25–35)-induced cell deaths (MTT); assay type: cell-based, human; conditions: pre-treatment 1, 2 and 10 μM for 24 h, then 40 μg/mL Aβ (25–35) 24 h; vs control p < 0.05
Experimental: The human SH-SY5Y neuroblastoma cell lines (CRL-2266, Lot No. 58979771) were purchased from American Type Culture Collection (Manassas, VA, USA) and used as models to investigate PIC and its analogs for neuroprotective activities against Aβ-induced cell deaths and the stimulation of neurite outgrowths. The SH-SY5Y cells were grown in DMEM/F-12 medium supplemented with 10% FBS at 37 °C under a humidified atmosphere and 5% CO2 [41]. […]. The SH-SY5Y cells (10,000 cells/well) were seeded and cultured in a DMEM/F-12 medium containing 10% FBS for 24 h at 37 °C under a humidified atmosphere and 5% CO2. […] The medium was then removed, and 40 μg/mL Aβ peptide (25–35) (dissolved in PBS) or an equal aliquot of PBS was added to the medium for another 24 h culture. The MTT was used to evaluate cell viability, and the absorbance at 570 nm was determined. The DMSO used instead of the sample solution was blank (recognized as 100%), and each treatment was expressed as relative cell viability (%). To study the stimulation of neurite outgrowth, the SH-SY5Y cells (5000 cells/well) were seeded on a 96-well plate pre-coated with poly-L-lysine and then cultured in the DMEM/F-12 medium containing 10% FBS overnight at 37 °C under a humidified atmosphere and 5% CO2. After being removed from the culture medium, each PIC, GNT, RHA, and isoRHA (at a final concentration of 10 μM in the 0.1%DMSO) or 0.1% DMSO (the control) was added to the DMEM/F-12 medium containing 10% FBS and refreshed every three days. On day 3 and day 6, each of the culture plates was photographed using an inverted microscope (ECLIPSE TS100, Nikon Instruments Inc., Tokyo, Japan). The culture medium was removed and washed with PBS, and the cultured cells in each well were fixed with 4% paraformaldehyde. To measure cell viability and quantify the neurite outgrowths of the treated SH-SY5Y in a 96-well plate, the neurite outgrowth staining kit (a two-color fluorescence assay kit) was used, following a previous report or the protocol in the manufacturer’s manual (publication number: MAN0007224), which included a cell membrane-stained fluorescent dye (orange-red fluorescence), a cell viability indicator (green fluorescence), and a reagent for background masking. The fluorescence ratios of Ex555nm/Em565nm and Ex495nm/Em515nm were determined for the neurite outgrowths and the cell viabilities, respectively. The value for the control was recognized as 100%, and each treatment was expressed relative to the control.

recombinant human AChE = molecular target: T2, recombinant human AChE (Homo sapiens, UniProt P22303); assay: AChE inhibitory activity in vitro (acetylthiocholine/DTNB); assay type: biochemical
T2 construct: purchased R&D Systems Inc. (Minneapolis, MN, USA)
T2 sequence (P22303 32-614): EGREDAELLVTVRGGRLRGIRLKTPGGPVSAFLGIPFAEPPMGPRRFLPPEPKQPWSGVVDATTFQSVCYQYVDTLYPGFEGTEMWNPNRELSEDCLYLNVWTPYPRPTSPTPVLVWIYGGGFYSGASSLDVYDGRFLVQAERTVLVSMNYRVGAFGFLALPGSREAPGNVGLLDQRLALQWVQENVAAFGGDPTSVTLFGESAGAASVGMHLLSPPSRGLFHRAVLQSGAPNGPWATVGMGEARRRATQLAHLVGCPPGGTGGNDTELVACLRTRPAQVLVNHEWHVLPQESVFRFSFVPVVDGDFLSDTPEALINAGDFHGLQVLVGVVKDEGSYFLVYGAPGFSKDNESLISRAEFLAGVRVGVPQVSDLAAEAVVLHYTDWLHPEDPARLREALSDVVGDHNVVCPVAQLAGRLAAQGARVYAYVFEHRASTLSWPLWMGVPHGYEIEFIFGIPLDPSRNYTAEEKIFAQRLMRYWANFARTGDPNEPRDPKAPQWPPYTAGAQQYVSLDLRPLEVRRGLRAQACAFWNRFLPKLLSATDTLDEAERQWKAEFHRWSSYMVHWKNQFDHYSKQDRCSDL
Experimental: Commercially synthesized acetylthiocholine iodide was hydrolyzed using AChE to release thiocholine, which was coupled with DTNB to generate the yellowish 5-thio-2-nitrobenzoate for in vitro AChE activity assays. For the AChE inhibitory activity assay, each analog was dissolved in the DMSO, and final concentrations of 100, 200, and 500 μM were used for comparisons. An equal volume of DMSO instead of the sample solution was used in the blank group and expressed as 100% AChE activity. […] AChE inhibition (%) was calculated as follows: [(A405blank − A405sample)/(A405blank)] × 100%.

[6] = tested on: mild to moderate AD patients; conditions: human trial, 52 weeks, cited from earlier work
[7] = rats, cited from earlier work
[8] = oral administration to rats; cited from earlier work
[9] = tested on: scopolamine-induced amnesiac ICR mice; assay: Passive avoidance test in scopolamine-induced amnesiac ICR mice; assay type: in vivo, mouse; conditions: PIC 50 mg/kg oral once a day, donepezil 5 mg/kg oral, scopolamine 1 mg/kg i.p.
Source text: The scopolamine-induced cognitive dysfunctions of amnesiac ICR mice were used to evaluate the effects of PIC pre-treatments on the improvement of learning and memory functions, following previous reports. The animal experimental protocols were reviewed and approved by the Institutional Animal Care and Use Committee, Taipei Medical University (No. LAC-2021-0488). After a two-week acclimation, the mice were randomly divided into four groups (N = 5 for each group). In the first stage, the mice in the PIC group were orally pre-treated with PIC (50 mg/kg) using a feeding tube, once a day from day 1 to day 7; the mice in the blank, control, and donepezil groups were treated with the same volume of distilled water from day 1 to day 7. In the second stage, on day 8 and day 9, the mice in the PIC group and the donepezil group were orally treated once with PIC (50 mg/kg) and donepezil (positive control, 5 mg/kg), respectively, using a feeding tube; the mice in the blank and the control groups were treated with the same volume of distilled water. After 30 min, each mouse was injected intraperitoneally with scopolamine (1 mg/kg, dissolved in PBS), and the mice in the blank group were each injected with an equal volume of PBS instead of the scopolamine solution. Again, 30 min after the scopolamine or PBS injection, a learning and memory evaluation was performed on each mouse with the use of a 2-day passive avoidance test. All the mice were sacrificed at the end of the animal experiments, and the brain tissues of the mice in each group were isolated, weighted, and stored at −80 °C for further use.
A 2-day passive avoidance test, which included an acquisition trial on the first day and a retention trial on the second day, was used to evaluate the learning and memory functions of the scopolamine-induced cognitive dysfunctions of amnesiac ICR mice after PIC and donepezil treatments, following previous reports. A shuttle chamber (AccuScan Instruments Inc., Columbus, OH, USA) with a light box and a dark box separated by a sliding door was used. On day 8, after acclimation around the shuttle chamber for 30 min, each scopolamine-injected or PBS-injected mouse was placed in the light box for the acquisition trial. Once the mouse entered the dark box, the step-through latency (s) was recorded, and the sliding door was closed at the same time. Immediately after, the mouse was administered an electric foot shock (0.3 mA for 3 s) via the wired metal floor and then sent back to the cage. […] The step-through latency (period of time that each mouse stayed in the light box) was recorded again. […] The protein content of the whole brain extracts from the mice was quantified using the BCA protein kit, with bovine serum albumin as the standard protein. […]

[10] = 500 mg once daily up to 1000 mg twice daily

Row | SMILES | cytotoxicity on SH-SY5Y cells (SH-SY5Y cells [1]) | IC50 [2] | IC50 (Aβ peptide (1–42)) | stimulation of neurite outgrowths (SH-SY5Y cells [3]) | neuroprotection: cell viability against Aβ peptide (25–35)-induced cell deaths (SH-SY5Y cells [5]) | IC50 (recombinant human AChE) | also measured
1 | Oc1cc(O)cc(C=Cc2c(O)cccc2O)c1 [GNT, 3,5,2′,6′-tetrahydroxystilbene] | insignificant cytotoxicity | 97 µM | 1.76 µM | not PIC nor GNT; also recorded: not PIC and GNT | elevated cell viabilities | 276 µM | viability at 10 µM [4]: 80%
2 | COc1ccc(/C=C/c2cc(O)cc(O)c2)cc1O [RHA, 3,5,3′-trihydroxy-4′-methoxystilbene] | – | 57.8 µM | 2.93 µM | stimulate neurite outgrowths; also recorded: showed stimulated activities toward neurite outgrowths; also recorded: showed stimulatory activity in neurite outgrowths | elevated cell viabilities | 322 µM | total neurite lengths in living SH-SY5Y cells, fold of the control (SH-SY5Y cells [3]; calculated): 1.375 fold; viability at 10 µM ([4]; SH-SY5Y neuroblastoma cells): 80%
3 | Oc1ccc(C=Cc2cc(O)cc(O)c2)cc1 [RSV, 3,5,4′-trihydroxystilbene] | insignificant cytotoxicity | – | – | – | elevated cell viabilities | – | crossing of the blood–brain barrier [6, 10]: could cross the blood–brain barrier; safety and tolerance [6, 10]: safe and had good tolerance with adverse effects of nausea, diarrhea, and weight loss; Aβ42 and Aβ40 levels in the cerebrospinal fluid [6]: reduced; AUC0–8h in plasma, intact compound ([7]; co-administration of PIC and RSV, each at 180 μmol/kg): 4.1 µM·h; AUC0–8h in plasma, intact compound ([7]; intragastric, 90 μmol/kg): 2.0 µM·h; AUC0–8h in plasma, intact compound ([7]; intragastric, 180 μmol/kg): 4.7 µM·h; AUC0–8h in plasma, intact compound ([7]; intragastric, 360 μmol/kg): 8.6 µM·h; bioavailability [8]: 29.8%; half-life [8]: 1.48 h
4 | Cc1c(C)c2c(c(C)c1O)CCC(C)(C(=O)O)O2 (stereo not shown) [Trolox, 6-hydroxy-2,5,7,8-tetramethylchroman-2-carboxylic acid, reference compound] | – | 83.1 µM | – | – | – | – | –
5 | COc1cc2c(cc1OC)C(=O)C(CC1CCN(Cc3ccccc3)CC1)C2 (stereo not shown) [donepezil, reference compound] | – | – | – | – | – | – | step-through latency, acquisition trial (first day) [9]: no significant difference among the groups; step-through latency, retention trial (second day) ([9]; vs control p < 0.05): longer staying time
